Measurements from ChEMBL document CHEMBL3045998, “QSAR analysis of 2-benzoxazolyl hydrazone derivatives for anticancer activity and its possible target prediction” (Med Chem Res, 2012).

Tests used:
Format in all cases: functional, cell-based
[1] = Cytotoxicity against Homo sapiens (human) Burkitt lymphoma cells assessed as growth inhibition
HeLa = experiment: Cytotoxicity against Homo sapiens (human) HeLa cells assessed as growth inhibition
CCRF-CEM = experiment: Cytotoxicity against Homo sapiens (human) CCRF-CEM cells assessed as growth inhibition

C/C(=N\Nc1nc2ccccc2o1)c1ccc(C)nn1
IC50 ([1]; read-out: IC50): 6270 nM | IC50 ([1]; read-out: pIC50 (converted)): 6310 nM

C/C(=N\Nc1nc2ccccc2o1)c1cccnc1
IC50 ([1]; read-out: IC50): > 100000 nM

CCC/C(=N\Nc1nc2ccccc2o1)c1ccccn1
IC50 ([1]; read-out: IC50): 6 nM | IC50 ([1]; read-out: pIC50 (converted)): 6.03 nM

C/C(=N\Nc1nc2ccccc2o1)c1nccnc1C
IC50 (HeLa): 186 nM | IC50 (CCRF-CEM): 129 nM | IC50 ([1]; read-out: IC50): 900 nM | IC50 ([1]; read-out: pIC50 (converted)): 891 nM

C/C(=N\Nc1nc2ccccc2o1)c1ccccn1
IC50 ([1]; read-out: IC50): 9 nM | IC50 ([1]; read-out: pIC50 (converted)): 8.91 nM

C/C(=N\Nc1nc2ccccc2o1)c1ncccn1
IC50 ([1]; read-out: IC50): 30 nM | IC50 ([1]; read-out: pIC50 (converted)): 30.2 nM

C/C(=N\Nc1nc2ccccc2o1)c1cnc(C)cn1
IC50 ([1]; read-out: IC50): 150 nM | IC50 ([1]; read-out: pIC50 (converted)): 151 nM

CC(C)/C(=N\Nc1nc2ccccc2o1)c1ccccn1
IC50 ([1]; read-out: IC50): 14 nM | IC50 ([1]; read-out: pIC50 (converted)): 14.1 nM

c1ccc(C/C(=N\Nc2nc3ccccc3o2)c2ccccn2)cc1
IC50 ([1]; read-out: IC50): > 10000 nM

C/C(=N\Nc1nc2ccccc2o1)c1cccnn1
IC50 ([1]; read-out: IC50): 1300 nM | IC50 ([1]; read-out: pIC50 (converted)): 1290 nM

C/C(=N\Nc1nc2ccccc2o1)c1cc(C)ncn1
IC50 ([1]; read-out: IC50): 42 nM | IC50 ([1]; read-out: pIC50 (converted)): 41.7 nM

C/C(=N\Nc1nc2ccccc2o1)c1cccc[n+]1[O-]
IC50 ([1]; read-out: IC50): 27 nM | IC50 ([1]; read-out: pIC50 (converted)): 26.9 nM

C/C(=N\Nc1nc2ccccc2o1)c1ccncn1
IC50 ([1]; read-out: IC50): 144 nM | IC50 ([1]; read-out: pIC50 (converted)): 145 nM

c1ccc(/C(=N/Nc2nc3ccccc3o2)C2CC2)nc1
IC50 ([1]; read-out: IC50): 185 nM | IC50 ([1]; read-out: pIC50 (converted)): 186 nM

CC(C)(C)/C(=N\Nc1nc2ccccc2o1)c1ccccn1
IC50 ([1]; read-out: IC50): > 10000 nM

c1ccc(/C(=N\Nc2nc3ccccc3o2)c2ccccn2)cc1
IC50 ([1]; read-out: IC50): 120 nM | IC50 ([1]; read-out: pIC50 (converted)): 120 nM

C/C(=N\Nc1nc2ccccc2o1)c1nccc2ccccc12
IC50 ([1]; read-out: IC50): 200 nM | IC50 ([1]; read-out: pIC50 (converted)): 200 nM

c1ccc(C(=NNc2nc3ccccc3o2)c2ccccn2)nc1
IC50 ([1]; read-out: IC50): 12 nM | IC50 ([1]; read-out: pIC50 (converted)): 12 nM

CC/C(=N\Nc1nc2ccccc2o1)c1ccccn1
IC50 (HeLa): 51.3 nM | IC50 ([1]; read-out: IC50): 2 nM | IC50 ([1]; read-out: pIC50 (converted)): 2 nM

C/C(=N\Nc1nc2ccccc2o1)c1cc2ccccc2cn1
IC50 ([1]; read-out: IC50): 30 nM | IC50 ([1]; read-out: pIC50 (converted)): 30.2 nM

C(=N\Nc1nc2ccccc2o1)/c1ccccn1
IC50 ([1]; read-out: IC50): 5 nM | IC50 ([1]; read-out: pIC50 (converted)): 5.01 nM

C/C(=N\N(C)c1nc2ccccc2o1)c1ccccn1
IC50 ([1]; read-out: IC50): > 50000 nM

C/C(=N\Nc1nc2ccccc2o1)c1ccc2ccccc2n1
IC50 ([1]; read-out: IC50): 5490 nM | IC50 ([1]; read-out: pIC50 (converted)): 5500 nM
